Literature values, collected in paper PMC6311893, “Computational prediction of plasma protein binding of cyclic peptides from small molecule experimental data using sparse modeling techniques” (BMC Bioinformatics, 2018).

tested on: plasma protein; conditions: fraction bound to plasma protein; small molecule dataset, sheet 1-SM (Set Dte = test, Dtr = training); ref Ingle et al.; cited from earlier work

| SMILES | PPB (fb) |
| --- | --- |
| CCC(Oc1ccccc1)C(=O)NC1C(=O)N2C1SC(C)(C)C2C(=O)O (centres unmarked) [penicillin50] | 0.86 |
| CC1(C)SC2C(NC(=O)c3cccc4ccccc34)C(=O)N2C1C(=O)O (centres unmarked) [penicillin64] | 0.86 |
| CC1(C)SC2C(NC(=O)CC(N)c3cccs3)C(=O)N2C1C(=O)O (centres unmarked) [penicillin72] | 0.32 |
| COC(CC(=O)NC1C(=O)N2C1SC(C)(C)C2C(=O)O)c1ccc(Cl)s1 (centres unmarked) [penicillin75] | 0.84 |

same assay, conditions: fraction bound to plasma protein; small molecule dataset, sheet 1-SM; ref Ingle et al.; cited from earlier work

| SMILES | PPB (fb) |
| --- | --- |
| CC1(C)SC2C(NC(=O)C(N)c3cccc(N)c3)C(=O)N2C1C(=O)O (centres unmarked) [penicillin31] | 0.12 |
| CC1(C)SC2C(NC(=O)C(N)c3cccc(O)c3)C(=O)N2C1C(=O)O (centres unmarked) [penicillin32] | 0.17 |
| COc1ccc(C(N)C(=O)NC2C(=O)N3C2SC(C)(C)C3C(=O)O)cc1 (centres unmarked) [penicillin34] | 0.38 |
| CC1(C)SC2C(NC(=O)C(NC(=O)c3ccc(S(N)(=O)=O)cc3)c3ccccc3)C(=O)N2C1C(=O)O (centres unmarked) [penicillin35] | 0.42 |
| CC1(C)SC2C(NC(=O)C(NC(=O)c3ccccn3)c3ccccc3)C(=O)N2C1C(=O)O (centres unmarked) [penicillin36] | 0.63 |
| CC1(C)SC2C(NC(=O)C(O)c3ccccc3)C(=O)N2C1C(=O)O (centres unmarked) [penicillin37] | 0.53 |
| COC(C(=O)NC1C(=O)N2C1SC(C)(C)C2C(=O)O)c1ccccc1 (centres unmarked) [penicillin38] | 0.62 |
| COC(C(=O)NC1C(=O)N2C1SC(C)(C)C2C(=O)O)c1cccc(Br)c1 (centres unmarked) [penicillin39] | 0.88 |
| COC(C(=O)NC1C(=O)N2C1SC(C)(C)C2C(=O)O)c1cccc(Cl)c1 (centres unmarked) [penicillin40] | 0.83 |
| COC(C(=O)NC1C(=O)N2C1SC(C)(C)C2C(=O)O)c1c(Cl)cccc1Cl (centres unmarked) [penicillin41] | 0.84 |
| CC(Oc1ccc(Cl)cc1)C(=O)NC1C(=O)N2C1SC(C)(C)C2C(=O)O (centres unmarked) [penicillin42] | 0.92 |
| COC(C(=O)NC1C(=O)N2C1SC(C)(C)C2C(=O)O)c1cc(Cl)c(Cl)c(Cl)c1 (centres unmarked) [penicillin43] | 0.96 |
| COC(C(=O)NC1C(=O)N2C1SC(C)(C)C2C(=O)O)c1ccc(Cl)c(F)c1 (centres unmarked) [penicillin44] | 0.83 |
| COC(C(=O)NC1C(=O)N2C1SC(C)(C)C2C(=O)O)c1cccc(F)c1 (centres unmarked) [penicillin45] | 0.65 |
| COC(C(=O)NC1C(=O)N2C1SC(C)(C)C2C(=O)O)c1cccc([N+](=O)[O-])c1 (centres unmarked) [penicillin46] | 0.6 |
| CC(Oc1ccccc1)C(=O)NC1C(=O)N2C1SC(C)(C)C2C(=O)O (centres unmarked) [penicillin48] | 0.82 |
| CC(C)(Oc1ccccc1)C(=O)NC1C(=O)N2C1SC(C)(C)C2C(=O)O (centres unmarked) [penicillin49] | 0.92 |
| CC1(C)SC2C(NC(=O)C(Oc3ccccc3)c3ccccc3)C(=O)N2C1C(=O)O (centres unmarked) [penicillin51] | 0.97 |
| CC1(C)SC2C(NC(=O)COc3ccccc3F)C(=O)N2C1C(=O)O (centres unmarked) [penicillin52] | 0.91 |
| CC1(C)SC2C(NC(=O)COc3cccc(F)c3)C(=O)N2C1C(=O)O (centres unmarked) [penicillin53] | 0.83 |
| CC1(C)SC2C(NC(=O)COc3ccc(F)cc3)C(=O)N2C1C(=O)O (centres unmarked) [penicillin54] | 0.81 |
| CC(Oc1ccccc1Cl)C(=O)NC1C(=O)N2C1SC(C)(C)C2C(=O)O (centres unmarked) [penicillin55] | 0.96 |
| COC(C(=O)NC1C(=O)N2C1SC(C)(C)C2C(=O)O)c1ccc(Cl)c(Cl)c1 (centres unmarked) [penicillin56] | 0.95 |
| CC(Oc1c(Cl)cccc1Cl)C(=O)NC1C(=O)N2C1SC(C)(C)C2C(=O)O (centres unmarked) [penicillin57] | 0.96 |

| SMILES | PPB (fb) |
| --- | --- |
| CC(Oc1ccc(Cl)c(Cl)c1)C(=O)NC1C(=O)N2C1SC(C)(C)C2C(=O)O (centres unmarked) [penicillin58] | 0.97 |
| CC(Oc1cc(Cl)cc(Cl)c1)C(=O)NC1C(=O)N2C1SC(C)(C)C2C(=O)O (centres unmarked) [penicillin59] | 0.97 |
| CC(Oc1cccc(F)c1)C(=O)NC1C(=O)N2C1SC(C)(C)C2C(=O)O (centres unmarked) [penicillin61] | 0.84 |
| CC(Oc1ccc(F)cc1)C(=O)NC1C(=O)N2C1SC(C)(C)C2C(=O)O (centres unmarked) [penicillin62] | 0.8 |
| CCC(COc1c(Cl)cccc1Cl)C(=O)NC1C(=O)N2C1SC(C)(C)C2C(=O)O (centres unmarked) [penicillin63] | 0.95 |
| CC1(C)SC2C(NC(=O)c3ccc4ccccc4c3)C(=O)N2C1C(=O)O (centres unmarked) [penicillin65] | 0.96 |
| Cc1ccc2ccccc2c1C(=O)NC1C(=O)N2C1SC(C)(C)C2C(=O)O (centres unmarked) [penicillin66] | 0.82 |
| COc1ccc2ccccc2c1C(=O)NC1C(=O)N2C1SC(C)(C)C2C(=O)O (centres unmarked) [penicillin67] | 0.8 |
| CC(Oc1ccc2ccccc2c1)C(=O)NC1C(=O)N2C1SC(C)(C)C2C(=O)O (centres unmarked) [penicillin69] | 0.95 |
| CC(Oc1cccc2ccccc12)C(=O)NC1C(=O)N2C1SC(C)(C)C2C(=O)O (centres unmarked) [penicillin70] | 0.97 |
| COC(CC(=O)NC1C(=O)N2C1SC(C)(C)C2C(=O)O)c1cccs1 (centres unmarked) [penicillin73] | 0.59 |
| COC(CC(=O)NC1C(=O)N2C1SC(C)(C)C2C(=O)O)c1ccc(Br)s1 (centres unmarked) [penicillin74] | 0.9 |
| COc1cnc2ccccc2c1C(=O)NC1C(=O)N2C1SC(C)(C)C2C(=O)O (centres unmarked) [penicillin76] | 0.57 |
| COc1c(C)nc2ccccc2c1C(=O)NC1C(=O)N2C1SC(C)(C)C2C(=O)O (centres unmarked) [penicillin77] | 0.62 |
| CCOc1cnc2ccccc2c1C(=O)NC1C(=O)N2C1SC(C)(C)C2C(=O)O (centres unmarked) [penicillin78] | 0.7 |
| CCOc1c(C)nc2ccccc2c1C(=O)NC1C(=O)N2C1SC(C)(C)C2C(=O)O (centres unmarked) [penicillin79] | 0.74 |
| CNc1nc(N(C)C)nc(N(C)C)n1 [pentamethylmelamine] | 0.75 |
| N=C(N)c1ccc(OCCCCCOc2ccc(C(=N)N)cc2)cc1 [pentamidine] | 0.7 |
| OC[C@H]1O[C@@H](n2cnc3c2NC=NC[C@H]3O)C[C@@H]1O [pentostatin] | 0.03 |
| CC(=O)CCCCn1c(=O)c2c(ncn2C)n(C)c1=O [pentoxifylline] | 0 |
| CN1CCN(CCCN2c3ccccc3Sc3ccccc32)CC1 [perazine] | 0.95 |
| CCCN1C[C@H](CSC)C[C@@H]2c3cccc4[nH]cc(c34)C[C@H]21 [pergolide] | 0.9 |
| CCC[C@H](N[C@@H](C)C(=O)N1[C@H](C(=O)O)C[C@@H]2CCCC[C@@H]21)C(=O)OCC [perindopril] | 0.6 |

same assay, conditions: plasma; cited from earlier work

| SMILES | PPB (fb) |
| --- | --- |
| CC1(C)SC2C(NC(=O)Cc3cccs3)C(=O)N2C1C(=O)O (centres unmarked) [penicillin71] | 0.58 |
| Oc1c(Cl)c(Cl)c(Cl)c(Cl)c1Cl [pentachlorophenol] | 0.99 |
